Consider eleven compounds from PubChem BioAssay (NCI).

Test in all cases: DTP human tumour cell line panel, 48 h
Experiment [1] deals with MALME-3M melanoma.
Experiment [2] has as its system HCT-116 colon.
Experiment [3] relates to CCRF-CEM leukemia.
Experiment [4] has as its system OVCAR-5 ovarian.
Experiment [5] has as its system SN12C renal.
Experiment [6] concerns OVCAR-3 ovarian.
Experiment [7] has as its system NCI-H522 lung.
Experiment [8] has as its system SF-539 CNS.
The test system of experiment [9] is SR leukemia.
Experiment [10] has as its system HOP-92 NSCLC.

“And” between values parts separate entries of the source, which are not always exact repeats. Identical values can stand only once.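 Growth conditions: 96-well plates. Treatment: test compound, 48 hours, 5 concentrations. Analysis: linear interpolation between bracketing concentrations; unreached endpoints set to highest concentration. GI50: concentration for 50% inhibition of growth. TGI denotes the concentration required for complete inhibition of growth.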

`CCOC(=O)[C@@H](N)CCC(=O)N[C@@H](CSCc1ccccc1)C(=O)N[C@@H](C(=O)OCC)c1ccccc1`: the GI50 was 19.7 µM in experiment [1]; 18.3 µM in experiment [2]; 21.8 µM in experiment [3]; greater than 100 µM in [4]; 18 µM in experiment [5]; 16.7 µM in [6]. Further, the GI50 in [7] is 16.2 µM; in [8], 17.6 µM; in [9], 9.97 µM; in experiment [10] it was 10.9 µM. Moreover, the TGI was 36.2 µM in [1]; 36.8 µM in experiment [2]; greater than 67.7 µM in experiment [3]; greater than 100 µM in experiment [4]; 34.9 µM in experiment [5]; 30.7 µM in [6]. For the same compound, the TGI in experiment [7] turned out to be 32.4 µM; in experiment [8] it was 33.8 µM; in experiment [9], 33.2 µM; in experiment [10], 24.2 µM.

As to `N#CC(NNC(=O)Cc1ccccc1)c1c(O)ccc2ccccc12` (stereo not given), the TGI in experiment [1] was 30.2 µM; in experiment [2], 50.9 µM; in [3], 26.9 µM; in [4], greater than 43.5 µM; in experiment [5] it was 61.3 µM; in experiment [6], 26.5 µM. Further, the TGI in [7] amounted to 34 µM; in experiment [8] it was 29 µM; in [9], 38.3 µM; in experiment [10], 41.3 µM.

Consider `NP(=O)(Oc1c2occc2cc2ccc(=O)oc12)N(CCCl)CCCl` (stereo not given), for which the concentration for total growth inhibition (TGI) in experiment [1], in experiment [2], in experiment [3], in experiment [4], in experiment [5] and in experiment [6] was greater than 100 µM throughout. Further, the TGI in experiment [7], in experiment [8], in [9] and in experiment [10] was greater than 100 µM each time.

In the case of `COc1cc2c(c(OC)c1OC)-c1ccc(OC)c(=O)cc1[C@@H](NC(=O)c1ccccc1)CC2`, the GI50 is less than 0.003 µM in [1]; less than 0.003 µM in experiment [2]; less than 0.003 µM in experiment [4]; less than 0.003 µM in experiment [5]; less than 0.003 µM in [6]; 0.00357 µM in experiment [7]. In [8], the GI50 was less than 0.003 µM. Besides, the TGI is 30 µM and 80.1 µM in experiment [1]; greater than 100 µM in experiment [3]; 30 µM and > 94.1 µM in experiment [4]; 30 µM and > 81.5 µM in [5]; 0.0125 µM and 0.0205 µM in experiment [7]; < 0.003 µM and 0.017 µM in experiment [8]. In addition, the TGI in [9] was greater than 100 µM; in experiment [10], 6.68 µM.

For `N#C/C(=C1C=C(Br)/C(=N\O)C=C\1Cl)c1cccc2ccccc12`, the concentration for total growth inhibition (TGI) in [1] amounted to 21.4 µM; in experiment [2] it was 15.6 µM; in [3], 13.9 µM; in experiment [4], 18 µM; in experiment [5], 23.2 µM; in [6], 9.39 µM. Further, the TGI worked out at 6.47 µM in experiment [7], 4.52 µM in experiment [8], 13.8 µM in [9] and 21.9 µM in [10].

For `C[C@@H]1CC(=O)C2CCCC1C2=O` (stereo not given in full), the TGI in [1], in [2], in [3], in [4], in [5] and in [6] was greater than 100 µM in each case. Besides, the TGI in experiment [7], in experiment [8], in experiment [9] and in [10] was greater than 100 µM throughout.

`CC(=O)CSCc1ccccn1`: the total growth inhibition concentration (TGI) is 9.99 µM in experiment [1]; greater than 100 µM in [2]; 90.7 µM in experiment [3]; greater than 100 µM in experiment [4]; greater than 100 µM in [5]; greater than 100 µM in [6]. Besides, the TGI is 45.3 µM in experiment [7], 67.9 µM in experiment [8], 56.1 µM in [9] and greater than 100 µM in experiment [10].

`COC(C(O)CO)C(O)C(O)C(=O)NNc1ccccc1` (stereo not given): the total growth inhibition concentration (TGI) in experiment [1], in [2], in [3], in experiment [4], in [5] and in experiment [6] was greater than 100 µM each time. For the same compound, the TGI was greater than 100 µM in [7], 98.3 µM in [8], greater than 100 µM in experiment [9] and greater than 100 µM in experiment [10].

With `CC(=O)/C(C)=N/NC(=O)c1ccccc1O`, the GI50 was greater than 100 µM in experiment [1]; greater than 100 µM in [2]; greater than 100 µM in experiment [4]; greater than 100 µM in experiment [5]; greater than 10 µM in experiment [6]. In addition, the TGI in experiment [1], in experiment [2], in experiment [3], in experiment [4], in experiment [5] and in experiment [6] was greater than 100 µM throughout. In addition, the TGI in experiment [7] was greater than 100 µM; in experiment [8] it was greater than 10 µM; in [9], greater than 100 µM; in experiment [10], greater than 10 µM.

In the case of `COc1ccc(Nc2c3ccccc3nc3occc23)cc1`, the GI50 in [1] is 2.31 µM; in experiment [2], 1.54 µM; in experiment [3], 1.27 µM; in [4] it was 13.7 µM; in experiment [5], 2.45 µM; in experiment [6], 0.366 µM. Moreover, the GI50 in [7] was 2.35 µM; in [8], 2.84 µM; in [9] it was greater than 100 µM; in [10] it was 7.36 µM. In addition, the TGI in experiment [1] is 34.3 µM; in experiment [2] it was greater than 32.3 µM; in [3], greater than 24.7 µM; in experiment [4], greater than 63.4 µM; in experiment [5] it was 23.4 µM; in experiment [6] it was 4.2 µM. Besides, the TGI in [7] is greater than 100 µM; in experiment [8], 20.8 µM; in experiment [9], greater than 100 µM; in experiment [10], 31.5 µM.

Consider `NS(=O)(=O)c1ccc(NC2(C(=O)O)CCCC2)cc1`, for which the TGI in [1], in experiment [2], in experiment [3], in experiment [4], in experiment [5] and in [6] was greater than 100 µM in each case. The TGI in experiment [7], in experiment [8], in experiment [9] and in experiment [10] was greater than 100 µM in each case.

As usually defined, the GI50 is the concentration giving 50% growth inhibition. For orientation: TGI means the concentration at which net growth stops. Lower therefore signals more potent growth arrest.
